Measured values from ChEMBL document CHEMBL2057136, “Discovery of MEK/PI3K dual inhibitor via structure-based virtual screening” (Bioorg Med Chem Lett, 2012).

Key:
[1] = target: T1, Dual specificity mitogen-activated protein kinase kinase 1 (Homo sapiens, UniProt Q02750); test: Inhibition of MEK1 at 10 uM using [gamma32P]ATP by radiometric kinase assay
[2] = target: T1, Dual specificity mitogen-activated protein kinase kinase 1; test: Inhibition of MEK1 using [gamma32P]ATP by radiometric kinase assay
[3] = target: Dual specificity mitogen-activated protein kinase kinase 2 (Homo sapiens, UniProt P36507); test: Inhibition of MEK2 using [gamma32P]ATP by radiometric kinase assay
[4] = target: Phosphatidylinositol 4,5-bisphosphate 3-kinase catalytic subunit alpha isoform (Homo sapiens, UniProt P42336); test: Inhibition of PI3Kalpha using [gamma32P]ATP by radiometric kinase assay
Chain of Phosphatidylinositol 4,5-bisphosphate 3-kinase catalytic subunit alpha isoform (P42336 whole entry, canonical isoform): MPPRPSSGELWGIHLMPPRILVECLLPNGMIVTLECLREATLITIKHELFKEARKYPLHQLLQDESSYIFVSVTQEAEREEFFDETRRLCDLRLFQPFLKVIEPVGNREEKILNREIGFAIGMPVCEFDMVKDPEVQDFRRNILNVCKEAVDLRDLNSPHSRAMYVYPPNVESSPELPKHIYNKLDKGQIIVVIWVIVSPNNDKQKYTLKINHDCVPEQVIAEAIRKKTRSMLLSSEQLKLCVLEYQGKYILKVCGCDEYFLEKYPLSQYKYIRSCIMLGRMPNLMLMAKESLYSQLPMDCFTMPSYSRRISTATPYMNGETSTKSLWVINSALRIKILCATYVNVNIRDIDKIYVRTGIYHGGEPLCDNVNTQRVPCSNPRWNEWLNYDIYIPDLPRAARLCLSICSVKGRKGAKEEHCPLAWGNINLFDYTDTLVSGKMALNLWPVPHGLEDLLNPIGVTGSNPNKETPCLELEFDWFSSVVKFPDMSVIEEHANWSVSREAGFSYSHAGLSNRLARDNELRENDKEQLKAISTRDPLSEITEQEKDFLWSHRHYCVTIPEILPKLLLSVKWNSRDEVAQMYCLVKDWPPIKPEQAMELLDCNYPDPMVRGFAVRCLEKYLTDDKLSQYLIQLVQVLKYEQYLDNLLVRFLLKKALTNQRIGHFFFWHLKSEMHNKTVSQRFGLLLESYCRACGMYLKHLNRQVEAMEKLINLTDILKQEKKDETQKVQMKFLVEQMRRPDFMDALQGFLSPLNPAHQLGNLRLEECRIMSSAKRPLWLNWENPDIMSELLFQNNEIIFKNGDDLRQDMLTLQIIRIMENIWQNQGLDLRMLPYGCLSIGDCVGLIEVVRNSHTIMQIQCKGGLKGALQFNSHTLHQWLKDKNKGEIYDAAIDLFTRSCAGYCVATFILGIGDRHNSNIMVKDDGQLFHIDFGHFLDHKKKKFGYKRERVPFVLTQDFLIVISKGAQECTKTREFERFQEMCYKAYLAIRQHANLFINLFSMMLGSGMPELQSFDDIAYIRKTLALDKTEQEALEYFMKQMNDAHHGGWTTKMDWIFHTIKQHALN

T1 sequence (Q02750 whole entry): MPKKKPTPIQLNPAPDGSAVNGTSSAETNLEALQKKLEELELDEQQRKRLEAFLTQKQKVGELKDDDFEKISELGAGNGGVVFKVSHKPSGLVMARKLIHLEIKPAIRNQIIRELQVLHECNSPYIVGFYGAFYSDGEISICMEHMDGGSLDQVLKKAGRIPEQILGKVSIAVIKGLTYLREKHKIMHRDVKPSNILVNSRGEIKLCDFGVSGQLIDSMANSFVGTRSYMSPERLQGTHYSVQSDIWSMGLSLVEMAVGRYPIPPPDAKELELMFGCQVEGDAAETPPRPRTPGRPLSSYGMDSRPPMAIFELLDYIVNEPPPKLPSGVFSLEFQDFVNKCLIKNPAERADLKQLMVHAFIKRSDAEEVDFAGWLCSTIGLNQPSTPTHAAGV
Chain of Dual specificity mitogen-activated protein kinase kinase 2 (P36507 whole entry, canonical isoform): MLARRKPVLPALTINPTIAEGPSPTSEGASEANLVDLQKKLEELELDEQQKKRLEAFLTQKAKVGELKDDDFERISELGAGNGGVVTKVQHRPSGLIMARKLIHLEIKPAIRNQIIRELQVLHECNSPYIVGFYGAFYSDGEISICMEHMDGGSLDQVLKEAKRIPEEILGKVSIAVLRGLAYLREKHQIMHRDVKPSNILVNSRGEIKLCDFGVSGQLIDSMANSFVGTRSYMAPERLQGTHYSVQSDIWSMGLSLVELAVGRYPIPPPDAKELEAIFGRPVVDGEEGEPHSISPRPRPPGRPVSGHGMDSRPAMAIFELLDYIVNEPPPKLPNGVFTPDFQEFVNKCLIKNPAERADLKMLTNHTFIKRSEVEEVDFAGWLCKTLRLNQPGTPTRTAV

| inhibition [1] [%] | IC50 [2] [µM] | IC50 [3] [µM] | IC50 [4] [µM] | SMILES |
| --- | --- | --- | --- | --- |
| > 30 | 2.2 | 1.3 | 0.3 | N=C1/C(=C\c2ccc(O)c(O)c2)C(=O)N=C2SC(c3ccc(O)cc3)=NN12 |
| > 30 | 23.1 | – | > 30 | O=C(O)c1cccc(N2C(=O)/C(=C\c3cnc4ccccc4n3)SC2=S)c1 |
| > 30 | 8.5 | – | 10.2 | N=C1/C(=C\c2coc3ccccc3c2=O)C(=O)N=C2SC(c3ccc(O)cc3)=NN12 |
| > 30 | 12.3 | – | > 30 | OCCNc1ncnc2oc(-c3ccccc3)c(-c3ccccc3)c12 |
